Experimental findings from patent US8722849B2, “Polypeptides” (Novo Nordisk A/S, priority 2011, dated 2014) are described below.

Data set [1] deals with T1, human amylin receptor (amylin 3(a) receptor: human calcitonin receptor + RAMP-3) (Homo sapiens, UniProt O60896+P30988).
T1 construct: expressed in transfected cells; host or cells: BHK570
T1 sequence (P30988 25-474): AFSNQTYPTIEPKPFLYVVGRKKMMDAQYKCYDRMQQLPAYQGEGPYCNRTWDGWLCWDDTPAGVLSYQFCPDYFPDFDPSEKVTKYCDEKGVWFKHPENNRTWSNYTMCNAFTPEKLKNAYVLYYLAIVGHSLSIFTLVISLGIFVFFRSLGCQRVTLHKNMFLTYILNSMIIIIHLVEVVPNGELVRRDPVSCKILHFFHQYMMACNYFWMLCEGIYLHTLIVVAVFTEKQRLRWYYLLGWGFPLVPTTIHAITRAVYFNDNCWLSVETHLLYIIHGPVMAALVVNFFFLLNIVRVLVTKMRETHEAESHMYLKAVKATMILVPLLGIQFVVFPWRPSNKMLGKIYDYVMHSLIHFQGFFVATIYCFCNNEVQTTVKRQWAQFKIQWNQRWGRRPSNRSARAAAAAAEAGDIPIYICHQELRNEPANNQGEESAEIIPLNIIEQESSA
T1 sequence (O60896 24-148 partner): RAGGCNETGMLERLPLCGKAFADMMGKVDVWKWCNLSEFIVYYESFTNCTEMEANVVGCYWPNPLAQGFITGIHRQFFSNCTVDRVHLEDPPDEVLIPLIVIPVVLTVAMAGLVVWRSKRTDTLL
Put plainly: Assay (II)a functional CRE-luciferase assay, human amylin receptor. In kind it is cell-based. As to conditions: Table 2; BHK amylin 3(a)-receptor/CRE-luc cells.

A short description of data set [2]: Assay (IV) determination of solubility. In kind it is physicochemical. Put shortly:
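Polypeptide in water (~500 nmol/ml stock) was mixed 1:1 with 100 mM buffers from pH 3.0 to 8.0 (glycylglycine pH 3.0–5.0; bistrispropane pH 6.0–8.0). After 18 hours at room temperature, samples were centrifuged and the polypeptide remaining in solution was quantified by HPLC.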

The target in data set [3] is T2, human calcitonin receptor (Homo sapiens, UniProt P30988).
T2 construct: expressed in transfected cells; host or cells: BHK570
T2 sequence (P30988 25-474): T1 sequence (P30988 25-474)
The experiment in a line: Assay (II)a functional CRE-luciferase assay, human calcitonin receptor. In kind it is cell-based.

Data set [4] is described as follows: Assay (III) ThT fibrillation assay for physical stability. The data set is classed as physicochemical. Put shortly: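 Freshly prepared formulations, pH-adjusted, with 1 μM ThT; four or eight replicates incubated at 37 °C under 960 rpm orbital shaking. Fluorescence (ex 444/em 485 nm) read every 20 min; […]. Peptide concentration measured by RP-HPLC before and after the run.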

Where [5] appears, read: bistrispropane buffer, pH 6, pH 6.0, read-out: Solubility pH 6.0.
Where [6] appears, read: bistrispropane buffer, pH 6.5, pH 6.5, read-out: Solubility pH 6.5.
[7] abbreviates: bistrispropane buffer, pH 7, pH 7.0, 18 hours at room temperature, Table 3, read-out: Solubility pH 7.0.
Setting [8] is: bistrispropane buffer, pH 7, pH 7.0, read-out: Solubility pH 7.0.
Setting [9] is: bistrispropane buffer, pH 7.5, pH 7.5, read-out: Solubility pH 7.5.
The mark [10] stands for this setting: bistrispropane buffer, pH 8, pH 8.0, read-out: Solubility pH 8.0.
Where [11] appears, read: glycylglycine buffer, pH 3, pH 3.0, read-out: Solubility pH 3.0.
Setting [12] is: glycylglycine buffer, pH 4, pH 4.0, 18 hours at room temperature, Table 2, read-out: Solubility pH 4.0.
Setting [13] is: glycylglycine buffer, pH 4, pH 4.0, read-out: Solubility pH 4.0.
Where [14] appears, read: glycylglycine buffer, pH 5, pH 5.0, read-out: Solubility pH 5.0.
Setting [15] is: Table 7, human calcitonin (CTa) receptor.
Setting [16] is: bistrispropane buffer, pH 7, pH 7.0, Table 8, read-out: Solubility pH 7.0.
Setting [17] is: bistrispropane buffer, pH 7, pH 7.0, Table 9, read-out: Solubility pH 7.0.
The mark [18] stands for this setting: bistrispropane buffer, pH 7.5, pH 7.5, Table 9, read-out: Solubility pH 7.5.

In brackets after ≈: the same amount, converted by molar mass. Read-outs that look alike come from different tables or passages of the source. Starred links: 1 amine or outer side, 2 acyl side, 3 side chain; linkers in the order of their positions; H or OH if unused. Positions of bridges follow the written chain, without caps; N, C: chain ends. Residues, ends and D or L forms follow the SMILES beside them. Groups on a side chain read outwards from the residue. *: point of attachment. C20 diacid = O=C(O)CCCCCCCCCCCCCCCCCCC(=O)*; C18 diacid = O=C(O)CCCCCCCCCCCCCCCCC(=O)*; γGlu = O=C(O)[C@H](CCC(=O)[*:2])N[*:1]; AEEA = NCCOCCOCC(=O)O

With `CC[C@H](C)[C@H](NC(=O)[C@H](CCCCNC(=O)COCCOCCNC(=O)COCCOCCNC(=O)CC[C@H](NC(=O)CCCCCCCCCCCCCCCCC(=O)O)C(=O)O)NC(=O)CNC(=O)[C@H](Cc1ccccc1)NC(=O)[C@H](CC(N)=O)NC(=O)[C@H](CO)NC(=O)[C@H](CO)NC(=O)[C@H](CO)NC(=O)[C@H](Cc1c[nH]cn1)NC(=O)[C@@H](NC(=O)[C@H](CC(C)C)NC(=O)[C@H](Cc1ccccc1)NC(=O)[C@H](CCC(=O)O)NC(=O)[C@H](C)NC(=O)[C@H](CC(C)C)NC(=O)[C@H](CCCNC(=N)N)NC(=O)[C@H](CCC(N)=O)NC(=O)[C@@H](NC(=O)[C@H](C)NC(=O)[C@@H]1CSSC[C@H](NC(=O)[C@@H](N)CCCCN)C(=O)N[C@@H](CC(N)=O)C(=O)N[C@@H]([C@@H](C)O)C(=O)N[C@@H](C)C(=O)N[C@@H]([C@@H](C)O)C(=O)N1)[C@@H](C)O)C(C)C)C(=O)N[C@@H](CC(C)C)C(=O)N1CCC[C@H]1C(=O)N1CCC[C@H]1C(=O)N[C@H](C(=O)N[C@@H](CC(N)=O)C(=O)N[C@H](C(=O)NCC(=O)N[C@@H](CO)C(=O)N[C@@H](CC(N)=O)C(=O)N[C@H](C(=O)N[C@@H](Cc1ccc(O)cc1)C(N)=O)[C@@H](C)O)C(C)C)[C@@H](C)O` [Example 72, N-epsilon25-[2-(2-{2-[2-(2-{2-[(S)-4-Carboxy-4-(17-carboxyheptadecanoylamino)butyrylamino]ethoxy}ethoxy)acetylamino]ethoxy}ethoxy)acetyl]-[Glu14,Ser21,Lys25]-pramlintide] (H-KCNTATCATQRLAEFLVHSSSNFGK([AEEA-AEEA-γGlu-C18 diacid])ILPPTNVGSNTY-NH2; disulfide 2-7 (inferred); N-terminus assumed), the EC50 (commonly the midpoint of the concentration-response curve) in data set [1] came out at 0.089 nM; in data set [3] (setting [15]), 0.101 nM. Besides, the solubility (commonly the dissolved amount per volume that the medium holds) at 18 h in data set [2] (setting [5]) was 168 µM (≈ 787 µg/mL); in data set [2] (setting [6]), 130 µM (≈ 609 µg/mL); in data set [2] (setting [7]) it was 126 µM (≈ 590 µg/mL); in data set [2] (setting [8]), 126 µM (≈ 590 µg/mL); in data set [2] (setting [9]), 165 µM (≈ 773 µg/mL); in data set [2] (setting [10]) it was > 200 µM. For the same molecule, the solubility at 18 h in data set [2] (setting [11]), in data set [2] (setting [12]), in data set [2] (setting [13]) and in data set [2] (setting [14]) was > 200 µM in each case. Besides, the “ThT pH 4.0 lag time (h)” value in data set [4] (ThT fibrillation assay) is reported as 10.3 h.

Regarding `CC[C@H](C)[C@H](NC(=O)[C@@H]1CCCN1C(=O)CNC(=O)[C@H](Cc1ccccc1)NC(=O)[C@H](CC(N)=O)NC(=O)[C@H](CCC(N)=O)NC(=O)[C@H](CO)NC(=O)[C@H](CO)NC(=O)[C@H](Cc1c[nH]cn1)NC(=O)[C@H](CCCNC(=N)N)NC(=O)[C@H](CC(C)C)NC(=O)[C@H](Cc1ccccc1)NC(=O)[C@H](CCC(=O)O)NC(=O)[C@H](C)NC(=O)[C@H](CC(C)C)NC(=O)[C@H](CCCNC(=N)N)NC(=O)[C@H](CCC(N)=O)NC(=O)[C@@H](NC(=O)[C@H](C)NC(=O)[C@@H]1CSSC[C@H](NC(=O)[C@H](CCC(=O)O)NC(=O)[C@H](CCCNC(=N)N)NC(=O)[C@H](CCC(=O)O)NC(=O)CC[C@H](NC(=O)CCCCCCCCCCCCCCCCCCC(=O)O)C(=O)O)C(=O)N[C@@H](CC(N)=O)C(=O)N[C@@H]([C@@H](C)O)C(=O)N[C@@H](C)C(=O)N[C@@H]([C@@H](C)O)C(=O)N1)[C@@H](C)O)C(=O)N[C@@H](CC(C)C)C(=O)N1CCC[C@H]1C(=O)N1CCC[C@H]1C(=O)N[C@H](C(=O)N[C@@H](CC(N)=O)C(=O)N[C@H](C(=O)NCC(=O)N[C@@H](CO)C(=O)N[C@@H](CCC(N)=O)C(=O)N[C@H](C(=O)N1CCC[C@H]1C(N)=O)[C@@H](C)O)C(C)C)[C@@H](C)O` [Example 162, N-alpha-[(S)-4-Carboxy-4-(19-carboxynonadecanoylamino)butyryl]-Glu-Arg-[Glu1,Glu14,Arg17,Gln21,Gln35,Pro37]-pramlintide] ({C20 diacid-γGlu}-ERECNTATCATQRLAEFLRHSSQNFGPILPPTNVGSQTP-NH2; disulfide 4-9), the EC50 in data set [1] was 0.411 nM; in data set [3] (Table 11, read-out: CTa receptor human EC50), 2.19 nM. The solubility at 18 h in data set [2] (setting [5]), in data set [2] (setting [6]), in data set [2] (setting [7]), in data set [2] (setting [16]), in data set [2] (setting [17]) and in data set [2] (setting [8]) was > 200 µM throughout. For the same molecule, the solubility at 18 h in data set [2] (setting [18]), in data set [2] (setting [9]), in data set [2] (setting [10]), in data set [2] (setting [11]), in data set [2] (setting [12]) and in data set [2] (setting [13]) was > 200 µM throughout. Moreover, the solubility at 18 h in data set [2] (setting [14]) was > 200 µM. Also, the “ThT pH 4.0 lag time” value in data set [4] (Table 8), in data set [4] (Table 9) and in data set [4] (ThT fibrillation assay) was >45 h in each case. Besides, the “ThT pH 4.0 lag time (h)” value in data set [4] (ThT fibrillation assay) is >45 h.

`CC[C@H](C)[C@H](NC(=O)[C@@H]1CCCN1C(=O)CNC(=O)[C@H](Cc1ccccc1)NC(=O)[C@H](CC(N)=O)NC(=O)[C@H](CCC(N)=O)NC(=O)[C@H](CO)NC(=O)[C@H](CO)NC(=O)[C@H](Cc1c[nH]cn1)NC(=O)[C@H](CCCNC(=N)N)NC(=O)[C@H](CC(C)C)NC(=O)[C@H](Cc1ccccc1)NC(=O)[C@H](CCC(=O)O)NC(=O)[C@H](C)NC(=O)[C@H](CC(C)C)NC(=O)[C@H](CCCNC(=N)N)NC(=O)[C@H](CCC(N)=O)NC(=O)[C@@H](NC(=O)[C@H](C)NC(=O)[C@@H]1CSSC[C@H](NC(=O)[C@H](CCC(=O)O)NC(=O)[C@H](CCCNC(=N)N)NC(=O)[C@H](CCC(=O)O)NC(=O)CC[C@H](NC(=O)CCCCCCCCCCCCCCCCCCC(=O)O)C(=O)O)C(=O)N[C@@H](CC(N)=O)C(=O)N[C@@H]([C@@H](C)O)C(=O)N[C@@H](C)C(=O)N[C@@H]([C@@H](C)O)C(=O)N1)[C@@H](C)O)C(=O)N[C@@H](CC(C)C)C(=O)N1CCC[C@H]1C(=O)N1CCC[C@H]1C(=O)N[C@H](C(=O)N[C@@H](CC(N)=O)C(=O)N[C@H](C(=O)NCC(=O)N[C@@H](CO)C(=O)N[C@@H](CC(N)=O)C(=O)N[C@H](C(=O)N1CCC[C@H]1C(N)=O)[C@@H](C)O)C(C)C)[C@@H](C)O` [Example 161, N-alpha-[(S)-4-Carboxy-4-(19-carboxynonadecanoylamino)butyryl]-Glu-Arg-[Glu1,Glu14,Arg17,Gln21,Pro37]-pramlintide] ({C20 diacid-γGlu}-ERECNTATCATQRLAEFLRHSSQNFGPILPPTNVGSNTP-NH2; disulfide 4-9 (inferred); C-terminus assumed): the results for the EC50 in data set [1] and in data set [3] (setting [15]) were 0.232 nM and 1.13 nM, respectively. In addition, the solubility at 18 h in data set [2] (setting [5]), in data set [2] (setting [6]), in data set [2] (setting [7]), in data set [2] (setting [16]), in data set [2] (setting [17]) and in data set [2] (setting [8]) was > 200 µM in each case. Moreover, the solubility at 18 h in data set [2] (setting [18]), in data set [2] (setting [9]), in data set [2] (setting [10]), in data set [2] (setting [11]), in data set [2] (setting [12]) and in data set [2] (setting [13]) was > 200 µM each time. For the same molecule, in data set [2] (setting [14]), the solubility at 18 h was > 200 µM. Further, the “ThT pH 4.0 lag time” value in data set [4] (Table 8), in data set [4] (Table 9) and in data set [4] (ThT fibrillation assay) was >45 h throughout. Besides, the “ThT pH 4.0 lag time (h)” value in data set [4] (ThT fibrillation assay) is >45 h.
